Data reported in US9629848B2, “Compounds that modulate autoimmunity and methods of using the same” (The Regents of the University of Colorado, a body corporate, priority 2011, dated 2017).
Non-standard residues stand in square brackets, D forms with d. Residues, ends and D or L forms follow the SMILES beside them. ξ: configuration not given here. ξY = NC(Cc1ccc(O)cc1)C(=O)O; Nva = CCC[CH](N)C(=O)O

system: BDC 12-4.1 anti-B:9-23 T cell hybridoma; test: T cell stimulation assay, B:9-23 activated TCR BDC 12-4.1; format: cell-based; conditions: Mus musculus, B:9-23 activated TCR, read-out: IC50 for anti-B:9-23 TCRs BDC 12-4.1

Row | Molecule | IC50
1 | NC1(N)Sc2nc3ccccc3nc2S1 | 14.8 µM
2 | Nc1nc(N)c2nn[nH]c2n1 | 24 µM
3 | C1CN2CN1CN1CCN(C1)C2 | 2.8 µM

same assay, conditions: Mus musculus, read-out: IC50 for anti-B:9-23 TCRs BDC 12-4.1

Row | Molecule | IC50
4 | O=S1(=O)N2CN3CCN(C2)N1C3 | 0.5 µM

system: BDC 8-1.1α1 anti-B:9-23 T cell hybridoma; test: T cell stimulation assay, B:9-23 activated TCR 8-1.1α1; format: cell-based; conditions: Mus musculus, B:9-23 activated TCR, read-out: IC50 for anti-B:9-23 TCRs 8-1.1α1

Row | Molecule | IC50
5 | NC1(N)Sc2nc3ccccc3nc2S1 | 70.4 µM
6 | Nc1nc(N)c2nn[nH]c2n1 | 25.5 µM
7 | C1CN2CN1CN1CCN(C1)C2 | 48.8 µM

same assay, conditions: Mus musculus, read-out: IC50 for anti-B:9-23 TCRs 8-1.1α1

Row | Molecule | IC50
8 | O=S1(=O)N2CN3CCN(C2)N1C3 | 28.4 µM

system: human T cell receptor recognizing insulin B:9-23 presented by human DQ8; test: Inhibition of human T cell receptor recognizing insulin B:9-23 presented by human DQ8; format: cell-based; conditions: DQ8 pocket 1 and pocket 9 compounds studied in detail
Source text: Using a TCR sequence obtained from a T cell line generated from the peripheral blood of a diabetic individual with DQ8 molecule, a TCR was identified that is DQ8 restricted and responds to the insulin B:9-23 peptide.
Molecules predicted to occupy pockets 1 and 9 of the human DQ8 peptide binding groove were identified using in silico molecular docking program. The top scoring compounds for each pocket were screened for their ability to inhibit anti-B:9-23 T cell responses. FIGS. 9A and 9B represent the results of the T cell stimulation assay for compounds occupying pocket 1 and pocket 9 of the human DQ8 peptide binding groove, respectively.

Row | Molecule | Concentration at which inhibition is exhibited
9 | NC(=O)c1cc(Br)cc(C2CCCCC2)c1O [p1:12, 5-bromo-3-cyclohexyl-2-hydroxybenzamide] | nanomolar
10 | O=S(=O)(O)CCc1nnn[nH]1 [p9:23, 2-(1H-tetraazol-5-yl)ethanesulfonic acid] | nanomolar
11 | O=Nc1c(S(=O)(=O)O)cc2cc(S(=O)(=O)O)cc(O)c2c1O [p1:4, 4,5-dihydroxy-3-nitroso-2,7-naphthalenedisulfonic acid] | nanomolar
12 | O=C(O)COc1ccc(I)cc1I [p1:16, (2,4-diiodophenoxy)acetic acid] | nanomolar
13 | O=C(O)COC1C=CC(=O)N(CC(=O)O)N1 (stereo not drawn) [p9:5, 3-(carboxymethoxy)-6-oxo-3,6-dihydro-1(2H)-pyridazinyl acetic acid] | nanomolar

same assay, conditions: screen of DQ8 pocket 1 and pocket 9 compounds

Row | Molecule | Inhibition of human T cell receptor recognition of insulin B:9-23 presented by human DQ8
14 | NC(=O)c1cc(Br)cc(C2CCCCC2)c1O [p1:12, 5-bromo-3-cyclohexyl-2-hydroxybenzamide] | able to inhibit
15 | COC(=O)COc1ccc(Cl)cc1C(=O)O [p1:18, 5-chloro-2-(2-methoxy-2-oxoethoxy) benzoic acid] | able to inhibit
16 | CC=C1C(C(=O)O)C1C(=O)O (stereo not drawn) [p9:35, 3-ethylidene-1,2-cyclopropanedicarboxylic acid] | able to inhibit
17 | O=S(=O)(O)CCc1nnn[nH]1 [p9:23, 2-(1H-tetraazol-5-yl)ethanesulfonic acid] | able to inhibit
18 | 5-((2,5-dichloro-4-(hydroxy(oxido)amino)phenyl)diazenyl)-2-imino-4-methyl-2,3-dihydro-1,3-thiazole [p1:21] | able to inhibit
19 | O=Nc1c(S(=O)(=O)O)cc2cc(S(=O)(=O)O)cc(O)c2c1O [p1:4, 4,5-dihydroxy-3-nitroso-2,7-naphthalenedisulfonic acid] | able to inhibit
20 | O=S(=O)(O)C(O)CC(O)S(=O)(=O)O (stereo not drawn) [p9:10, 1,3-dihydroxy-1,3-propanedisulfonic acid] | able to inhibit
21 | O=C(O)C(S)CC(S)C(=O)O (stereo not drawn) [p9:17, 3-deoxy-2,4-dithiopentaric acid] | able to inhibit
22 | COc1ccc2c(n1)Sc1c(N)nc(N)nc1N2 [p1:22, 7-methoxy-10H-pyrido[2,3-b]pyrimido[4,5-e][1,4]thiazine-2,4-diamine] | able to inhibit
23 | Nc1nc(O)c2nc(S)c(C(=O)O)nc2n1 [p1:25, 2-amino-4-hydroxy-6-mercapto-7-pteridine carboxylic acid] | able to inhibit
24 | O=C(O)COc1ccc(I)cc1I [p1:16, (2,4-diiodophenoxy)acetic acid] | able to inhibit
25 | O=P(O)(O)CCCP(=O)(O)O [p9:1, 3-phosphonopropylphosphonic acid] | able to inhibit
26 | O=C(O)COC1C=CC(=O)N(CC(=O)O)N1 (stereo not drawn) [p9:5, 3-(carboxymethoxy)-6-oxo-3,6-dihydro-1(2H)-pyridazinyl acetic acid] | able to inhibit

system: CD3-stimulated T cell hybridomas; test: CD3-stimulated T cell hybridomas (specificity control); format: cell-based; conditions: not given
Source text: The small molecules p1:4, p1:12 and p1:16 were studied in additional detail.

Row | Molecule | Response of CD3-stimulated T cell hybridomas
27 | NC(=O)c1cc(Br)cc(C2CCCCC2)c1O [p1:12, 5-bromo-3-cyclohexyl-2-hydroxybenzamide] | did not change response
28 | O=Nc1c(S(=O)(=O)O)cc2cc(S(=O)(=O)O)cc(O)c2c1O [p1:4, 4,5-dihydroxy-3-nitroso-2,7-naphthalenedisulfonic acid] | did not change response
29 | O=C(O)COc1ccc(I)cc1I [p1:16, (2,4-diiodophenoxy)acetic acid] | did not change response

biological target: DQ8 (Homo sapiens, UniProt P01909+P01920, A209T/A45G/C70Q/D89A/DUP78-78/E183D/E77G/F237L/G63E/H199R/I129T/K197E/L178F/L74F/L98V/Q57E/Q76R/S185I/S97I/T217I/T49S/V73L/Y58L); test: Competitive binding assay B:9-23 to DQ8; conditions: not given

Row | Molecule | IC50 | Competitive Binding Assay B:9-23 to DQ8 (IC50)
30 | [H]/N=C(\NCCCCl)NN(O)O [p4:19] | > 100 µM | 
31 | NCc1c(Cl)c(Cl)c(Cl)c(CN)c1Cl [p6:19] | > 100 µM | 
32 | CCCCN(C)C12CN3CN(CN(C3)C1)C2 [p4:35] | > 100 µM | 
33 | NC(=O)N/N=C/Cn1cc([N+](=O)[O-])c(=O)[nH]c1=O [p4:23] | > 100 µM | 
34 | CC1CNC2C(=O)NC(=O)NC2N1 (stereo not drawn) [p4:5] | > 100 µM | 
35 | [H]/N=C(/N/N=C/c1ccncc1)NN(O)O [p4:4] |  | No inhibition
36 | N=C(N)NC(=N)Nc1ccccc1Cl [p4:1] | > 100 µM | 
37 | [H]/N=C(\NN(O)O)NS(=O)(=O)c1ccccc1 [p4:17] | > 100 µM | 
38 | [H]/N=C(/Nc1ccc(Cl)cc1)NN(O)O [p4:12] | > 100 µM | 
39 | NC(CCCC(N)C(=O)O)C(=O)O (stereo not drawn) [p4:34] | > 100 µM | 
40 | CC(=O)N1C(=O)C2(NCCCN2)c2ccccc21 [p6:34] | < 100 µM | 
41 | [H]/N=C(/NCc1ccccc1)NN(O)O [p4:28] | > 100 µM | 
42 | CC1C(c2ccccc2)OCN1C (stereo not drawn) [p4:32] | < 100 µM | 
43 | NCC(=O)NC(Cc1ccc(O)cc1)C(=O)O (stereo not drawn) [p6:24] (H-Gly-[ξY]-OH) | > 100 µM | 
44 | CCC(N)C(O)c1ccccc1 (stereo not drawn) [p4:30] |  | No inhibition
45 | Clc1ccc(Cl)c(OCC2=NCCN2)c1 [p4:15] | > 100 µM | 
46 | [H]/N=C(\NCCN(C)C)NN(O)O [p4:7] | < 100 µM | 
47 | Oc1ncnc2[nH]c(C(O)c3ccccc3)nc12 (stereo not drawn) [p4:22] | > 100 µM | 
48 | COC(=O)C(C=C(Cl)Cl)N1CCNCC1 (stereo not drawn) [p6:23] | > 100 µM | 
49 | CCCC(N)C(=O)NC(C(=O)O)C(C)C (stereo not drawn) [p4:20] (H-[Nva]-Val-OH; configuration not given here) | > 100 µM | 
50 | [H]/N=C(\NCCOC)NN(O)O [p4:31] | > 100 µM | 
51 | C=CC(OC(=O)CC)(c1ccccc1)C1CCNCC1 (stereo not drawn) [p6:32] |  | No inhibition

same assay, conditions: >100 uM means some effect at 100 uM but not 50% inhibition; < means lower concentrations not used

Row | Molecule | Competitive Binding Assay B:9-23 to DQ8 (IC50)
52 | NC(Cn1ccc(=O)c(O)c1)C(=O)O (stereo not drawn) [p4:14] | No inhibition
53 | N=C(N)c1ccc(/C=C/c2ccc(C(=N)N)cc2)cc1 [p6:33] | No inhibition
54 | [H]/N=C(\NCC[N+](C)(C)C)NN([O-])O [p4:3] | No inhibition
55 | OC1CN(Cc2ccccc2)CC1O (stereo not drawn) [p4:33] | No inhibition
56 | [H]/N=C(\N)NCCC(N)C(=O)O (stereo not drawn) [p4:18] | No inhibition
57 | CN(Cc1ccccc1)Cn1ccnc1 [p4:6] | No inhibition
58 | c1cc[n+](CC[n+]2ccccc2)cc1 [p4:13] | No inhibition
59 | CN1C(=O)C(N)C(N)N(C)C1=O (stereo not drawn) [p6:16] | No inhibition
60 | O=C1CN(C2CCCCC2N2CC(=O)NC(=O)C2)CC(=O)N1 (stereo not drawn) [p6:31] | No inhibition
61 | [H]/N=C(\NCCC#N)NN(O)O [p4:24] | No inhibition
62 | [H]/N=C(\NCCOC(C)=O)NN(O)O [p4:8] | No inhibition
63 | C[N+]1(C/C=C/CCl)CN2CNCN(C2)C1 (stereo not drawn) [p6:8] | No inhibition
64 | NC1CC2NC3CCCCC3NC2CC1N (stereo not drawn) [p6:7] | No inhibition
65 | NC1(COS(=O)(=O)O)CCN1 (stereo not drawn) [p6:30] | No inhibition
66 | NC(=O)N/N=C/C1CNCCN1 (stereo not drawn) [p4:9] | No inhibition
67 | c1ccc(CCN2CCCCCCCC2)nc1 [p4:21] | No inhibition
68 | CC1(CO)COC(=O)C(C)(C2(C)NC(C)(CO)COC2=O)N1 (stereo not drawn) [p6:28] | No inhibition
69 | C[N+]1(C/C=C/Cl)CN2CNCN(C2)C1 (stereo not drawn) [p6:2] | No inhibition
70 | [H]/N=C(\NCCS(C)(=O)=O)NN(O)O [p4:26] | No inhibition
71 | [H]/N=C(\N/C(N)=N/[H])Nc1ccc([N+](=O)[O-])cc1 [p4:2] | No inhibition
72 | C1CCCNCCNCCNCC1 [p6:27] | No inhibition
